Data on 3 molecules can be found in patent US6440659B1, “Inhibitors of retroviral protease as inducers of reversible insulin resistance in vitro and in vivo” (Washington University, priority 2000, dated 2002).

Bounds are passed on as bounds.

Test [1] concerns the target T1, Glut4 (Rattus norvegicus, UniProt P19357).
T1 construct: expressed in transfected cells; host or cells: Xenopus laevis oocytes, microinjected with in vitro transcribed mRNA
T1 sequence (P19357 1-509): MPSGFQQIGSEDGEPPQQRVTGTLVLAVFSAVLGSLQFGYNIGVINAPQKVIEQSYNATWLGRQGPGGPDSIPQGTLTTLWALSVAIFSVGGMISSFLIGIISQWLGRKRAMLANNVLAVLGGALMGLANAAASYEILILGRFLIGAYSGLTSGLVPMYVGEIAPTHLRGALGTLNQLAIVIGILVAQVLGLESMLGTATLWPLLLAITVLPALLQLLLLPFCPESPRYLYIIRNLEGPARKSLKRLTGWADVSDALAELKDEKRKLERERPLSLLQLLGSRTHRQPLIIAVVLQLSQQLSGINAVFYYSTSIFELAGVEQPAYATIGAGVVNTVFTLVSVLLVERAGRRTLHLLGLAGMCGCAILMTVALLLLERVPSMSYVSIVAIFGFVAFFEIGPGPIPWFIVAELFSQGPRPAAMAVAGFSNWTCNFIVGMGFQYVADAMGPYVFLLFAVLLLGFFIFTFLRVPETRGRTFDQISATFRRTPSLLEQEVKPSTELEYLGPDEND
Briefly: [3H]-2-deoxyglucose uptake in Xenopus oocytes expressing Glut4. It is filed as cell-based. Particulars: for inhibition at 50 µM: 50 μM (FIG. 3B). How it is done:
(§1) FIG. 3A. Xenopus oocytes heterologously expressing either Glut1 or Glut4 isoforms were used for [^3H]-2-deoxyglucose uptake measurement in Barth's Saline at 22° C. for 30 min. […] Plotted are the mean uptake from 15-20 oocytes±S.E. [* indicates p<0.01 compared with control (ANOVA with Fischer's PLSD posthoc analysis).]
(§2) FIG. 3B. Glucose uptake in X. laevis oocytes as described above. […] The data are normalized to the uptake from the control oocytes which were not exposed to protease inhibitor. [* indicates p<0.0001 compared with control (ANOVA with Fischer's PLSD posthoc analysis).]
(§3) Xenopus laevis oocytes were prepared and injected as described previously (Keller et al., 1989) with 50 ng of either Glut1 or Glut4 mRNA synthesized in vitro (Megascript RNA synthesis kit, Ambion). After a three day incubation in Barth=s saline containing albumin at 18° C., groups of 15-20 oocytes were washed and [^3H]-2-deoxyglucose (50 μM) uptake measurements were performed in Barth's saline at 22° C. for 30 minutes.

In test [2] the test system is 3T3-L1 adipocytes. The test can be described thus: [3H]-2-deoxyglucose uptake in 3T3-L1 adipocytes, basal and insulin-stimulated. Type of test: cell-based. Particulars: for effect on insulin-stimulated glucose uptake relative to indinavir: 50 μM (FIG. 1B); for effect on basal glucose uptake: basal conditions. How it is done:
FIG. 1A. […] Results from three experiments were normalized to the value obtained from insulin-stimulated control cells and are shown as the mean±S.E. (n=6). FIG. 1B. […] Results were normalized to the value obtained from insulin-stimulated control cells and are shown as the mean±S.E. (n=3). 3T3-L1 fibroblasts obtained from the American Type Culture Collection were grown to confluence and 48 h later subjected to the differentiation protocol described previously (Tordjman et al. 1989). Mature 3T3-L1 adipocytes were maintained in DMEM supplemented with 10% fetal bovine serum and used 10 to 15 d post-differentiation. 3T3-L1 adipocytes grown in 3.5 cm dishes were serum-starved for at least 3 hours and then washed three times with Krebs-Ringer phosphate buffer. […] Stock solutions of indinavir and amprenavir were made in water. Ritonavir was dissolved in ethanol.

Test [3] relates to Glut1. Briefly: Immunoblot of Glut1 content in PM and LDM fractions of 3T3-L1 adipocytes (translocation). The conditions noted are these: indinavir-treated cells, 100 μM for 4 h. For orientation: Immunoblotting shows a protein as a band on a membrane.
In test [4] the target is T2, Glut1 (Homo sapiens, UniProt P11166).
T2 construct: expressed in transfected cells; host or cells: Xenopus laevis oocytes, microinjected with in vitro transcribed mRNA
T2 sequence (P11166 1-492): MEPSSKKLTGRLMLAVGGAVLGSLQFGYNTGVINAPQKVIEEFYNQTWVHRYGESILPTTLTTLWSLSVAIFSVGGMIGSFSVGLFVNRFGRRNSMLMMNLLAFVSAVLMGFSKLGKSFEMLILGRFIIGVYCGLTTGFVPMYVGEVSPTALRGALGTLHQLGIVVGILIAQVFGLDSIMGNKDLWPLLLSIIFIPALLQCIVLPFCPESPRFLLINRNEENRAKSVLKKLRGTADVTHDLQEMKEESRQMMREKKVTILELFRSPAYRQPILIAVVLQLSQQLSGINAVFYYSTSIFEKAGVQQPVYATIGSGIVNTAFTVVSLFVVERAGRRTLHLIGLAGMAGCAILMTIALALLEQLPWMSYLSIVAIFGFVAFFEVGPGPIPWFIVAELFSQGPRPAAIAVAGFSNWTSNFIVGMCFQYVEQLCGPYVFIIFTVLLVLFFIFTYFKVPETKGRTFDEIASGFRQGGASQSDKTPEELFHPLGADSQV
Briefly: [3H]-2-deoxyglucose uptake in Xenopus oocytes expressing Glut1. The conditions noted are these: 22° C., 30 min. It is filed as cell-based. How it is done: as §1, §2, §3

Test [5] is described as follows: Glucose tolerance after acute indinavir administration in rats. It is filed as in vivo, male Wistar rats. The text has this:
(§4) Male Wistar rats (Charles River Corp) weighing between 250-400 g were used for all experiments described below. Glucose measurements were made using a Glucometer Elite Glucometer (Bayer Corporation, Diagnostics Division, Tarrytown, N.Y.). […] Jugular vein and carotid artery catheters were fabricated using microrenathane tubing (Braintree Scientific) for venous catheters and PE50 tubing (Becton Dickenson) for arterial catheters. Catheters were inserted surgically under methohexital (Jones Pharma Inc, St. Louis, Mo.) anesthesia. Humulin R insulin (Eli Lilly, Indianapolis, Ind.) was used where indicated.

Test [6] relates to insulin receptor (IR), IRS-1 and Akt phosphorylation. The test can be described thus: Immunoblot of insulin signaling (IR, IRS-1, Akt phosphorylation) in 3T3-L1 adipocytes. It is filed as cell-based. The conditions noted are these: 100 μM for 4 h, 1 μM insulin 20 min.
Description: Cells were further incubated for 20 min with or without 1 μM insulin, and subcellular fractions were subsequently isolate. Plasma membrane (PM), low density microsomal (LDM), and cytosolic (CYT) fractions were subjected to immunoblot analysis using anti-phosphotyrosine antibodies.
Whole cell lysates from 3T3-L1 adipocytes from samples treated as described above were subjected to immunoblot analysis using anti-phospo Akt antibodies, which recognize Akt phosphorylated on threonine 308 and serine 473.
Test [7] in a line: Euglycemic hyperinsulinemic clamp (peripheral insulin sensitivity) in rats. It is filed as in vivo, male Wistar rats. Particulars: for reduction in peripheral insulin sensitivity (average GIR) compared with controls: infusion started 30 min before clamp, p<0.05. The protocol:
Jugular vein and carotid artery catheters were inserted, at least 4 days prior to each experiment, into 200-400 gm male Wistar rats under methohexital anesthesia. Following an overnight fast, rats were infused with insulin (40 mU/kg/min) and 50% dextrose through the venous catheter. Blood was sampled every 5-10 minutes through the arterial catheter and serum glucose concentrations were determined. The glucose infusion rate (GIR) space was adjusted to maintain glucose levels of 100-110 mg/dl.
Male Wistar rats weighing 200-300 gm were catheterized as described in FIG. 5. […] After 30 minutes, insulin (40 mU/kg/min) and 50% dextrose were added to the intravenous infusion. Blood was sampled through the arterial line every 5 min and the dextrose infusion rate was adjusted to maintain plasma glucose levels between 105-115 mg/dL. GIR represents the mean glucose infusion rate during the final 30 minutes of each 2 hour clamp experiment. Results represent the mean±SEM from 3-5 rats per group. [* indicates […]]
as §4
Peripheral insulin sensitivity in rats was assessed by the euglycemic hyperinsulinemic clamp technique. Venous and arterial catheters were surgically inserted into the animals under anesthesia. At least 4 d prior to the initiation of experimental treatments catheters were inserted into both jugular vein and carotid artery locations. Following a 12 hour fast, animals were infused with insulin (40 mU/kg/min) and 50% dextrose in water through the venous catheter. Blood was sampled every 5-10 min through the arterial catheter for serum glucose determinations. The rate of glucose infusion (Glucose Infusion Rate, GIR) was adjusted as necessary to maintain serum glucose at 100-110 mg/dl (FIGS. 5A, 5B, 5C).
Insulin sensitivity was assessed by the average glucose infusion rate required to maintain euglycemia after equilibrium had been established.

For test [8], the system named is Glut4. The test can be described thus: Immunoblot of Glut4 content in PM and LDM fractions of 3T3-L1 adipocytes (translocation). The conditions noted are these: indinavir-treated cells, 100 μM for 4 h.

On to `CC(C)CN(C[C@@H](O)[C@H](Cc1ccccc1)NC(=O)O[C@H]1CCOC1)S(=O)(=O)c1ccc(N)cc1` [amprenavir], for which at 50 µM the inhibition in test [1] was 54%. Besides, the “effect on insulin-stimulated glucose uptake relative to indinavir” value in test [2] is given as “comparable to that of indinavir”.

`CC(C)(C)NC(=O)[C@@H]1CN(Cc2cccnc2)CCN1C[C@@H](O)C[C@@H](Cc1ccccc1)C(=O)N[C@H]1c2ccccc2C[C@H]1O` [indinavir]: the “increase with insulin of Glut1 content in plasma membrane (PM) fraction” value in test [3] was 63%. The “effect on Glut1 activity in Xenopus oocytes” value in test [4] was “no effect”. Besides, the “blood glucose concentration at t=30 min” value in test [5] (10 mg/kg i.p. together with dextrose 2 g/kg i.p., control 195±15, p<0.05) came to 241 ± 11 mg/dL. Moreover, the “peak plasma glucose concentration” value in test [5] (15 mg/kg i.v. 5 min prior to glucose 2 gm/kg i.p., control 311±30) stood at 407 ± 25 mg/dL. Besides, the inhibition (in general, the drop in the measured response relative to a control, in per cent) at 100 µM in test [1] (100 μM (maximum dose tested)) worked out at 45%; in test [2] (Mus musculus, 3T3-L1, 100 μM, added 6 min prior to assay, 1 μM insulin for 20 min, read-out: inhibition of insulin-stimulated glucose uptake), 63%. Also, the “IR autophosphorylation and tyrosine phosphorylation of IRS-1” value in test [6] is listed as “occurred normally”. The “effect on insulin-stimulated phosphorylation of Akt on threonine 308 or serine 473” value in test [6] is recorded as “no effect”. Further, the “reduction in peripheral insulin sensitivity (average GIR) compared with controls” value is listed as 15% in test [7] (0.3 mg/kg/min) and 40% in test [7] (0.5 mg/kg/min). In addition, the “time to restoration of insulin sensitivity to baseline after stopping infusion” value in test [7] (after stopping indinavir infusion) is listed as at most 4 h. The “decrease in GIR required to maintain euglycemia” value is on record as 20% in test [7] (i.v. infusion 0.3 mg/kg/min) and 50% in test [7] (i.v. infusion 0.5 mg/kg/min, within 90 minutes after start). Also, the inhibition at 10 µM in test [2] (Mus musculus, 3T3-L1, 10 μM, added 6 min prior to assay, 1 μM insulin, p<0.0001, read-out: inhibition of insulin-stimulated glucose uptake) amounted to 26%. For the same molecule, the “effect on basal glucose uptake” value in test [2] (20 μM) is “modest increase”; in test [2] (10-100 μM), “largely unaffected”. In addition, in test [2] (data not shown), the “extent of inhibition of transport activity when added before or after 20 min of insulin stimulation” value is given as “did not change”. Further, in test [2] (data not shown), the “time to restoration of normal insulin-responsive glucose uptake after removal of drug” value was at most 30 min. The “increase with insulin of Glut4 content in plasma membrane (PM) fraction” value in test [8] was found to be 38%.

`CC(C)c1nc(CN(C)C(=O)N[C@H](C(=O)N[C@@H](Cc2ccccc2)C[C@H](O)[C@H](Cc2ccccc2)NC(=O)OCc2cncs2)C(C)C)cs1` [ritonavir] came in with an inhibition at 50 µM in test [1] of 42%. The “effect on insulin-stimulated glucose uptake relative to indinavir” value in test [2] was “comparable to that of indinavir”.
